Data taken from US20260184691A1, “INHIBITORS AND DEGRADERS OF PIP4K PROTEIN” (Larkspur Biosciences, Inc., priority 2022, published 2026).

The compounds below were run against T1, endogenous PIP4K2C C-terminally tagged with HiBiT peptide in MOLT-4 cells (Homo sapiens, UniProt Q8TBX8) (assay: HiBiT PIP4K2C degradation assay in MOLT-4 cells). Settings: 24 hours, 10-point dose response, top concentration 10 micromolar, read-out: HiBIT-degradation MOLT4 PIP4k2C 24 hours DC50.
T1 construct: to C-terminally tag endogenous PIP4K2C with HiBiT peptide; host or cells: MOLT-4 (CRISPR-Cas9 knock-in clone)
T1 sequence (Q8TBX8 1-421): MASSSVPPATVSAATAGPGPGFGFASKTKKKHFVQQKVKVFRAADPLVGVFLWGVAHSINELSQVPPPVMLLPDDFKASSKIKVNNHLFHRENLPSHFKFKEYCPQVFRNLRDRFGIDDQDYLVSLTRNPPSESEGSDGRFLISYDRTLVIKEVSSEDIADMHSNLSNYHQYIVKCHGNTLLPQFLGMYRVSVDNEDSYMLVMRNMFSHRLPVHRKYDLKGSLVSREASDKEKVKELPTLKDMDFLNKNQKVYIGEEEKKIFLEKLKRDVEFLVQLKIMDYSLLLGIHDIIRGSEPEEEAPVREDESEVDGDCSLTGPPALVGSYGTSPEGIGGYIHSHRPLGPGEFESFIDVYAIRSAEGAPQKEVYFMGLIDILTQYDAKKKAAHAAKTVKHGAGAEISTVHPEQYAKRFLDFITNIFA
Assay type: cell-based
Description: Following clonal selection, genotype was confirmed by Sanger sequencing. […] Nano-Glo® HiBiT Lytic Assay System was purchased from Promega (Madison, WI, Catalog number N3030). Cell culture flasks and 384-well microplates were purchased from Corning (Glendale, AZ).
To study PIP4K2C degradation, 384-well plates were plated with a 10-point dose response curve, 3-fold dilution, in duplicate with a top starting concentration of 10 micromolar. Subsequently 22,500 cells were added to each well and incubated at 37C in 5% CO2 for 24 hours. At the end of the incubation time, cells were treated with the Nano-Glo® HiBiT Lytic Detection System following the manufacturer's instructions. Luminescence was measured with a PHERAstar FSX plate reader (BMG Labtech, Cary, NC). The Levenberg-Marquardt algorithm was used to fit a Hill equation to dose-response data to calculate DC50 values (see Table 6).
Cn1c(=O)n(C2CCC(=O)NC2=O)c2ccc(C3CCN(C(=O)CN4CCC5(CC4)CCN(c4cncc(Nc6ncc(Cl)c(-c7cccc(C8CC8)c7)n6)c4)C5=O)CC3)cc21 (stereo not drawn) [Compound 208, 3-[5-[1-[2-[2-[5-[[5-chloro-4-(3-cyclopropylphenyl)pyrimidin-2-yl]amino]-3-pyridyl]-1-oxo-2,8-diazaspiro[4.5]decan-8-yl]acetyl]-4-piperidyl]-3-methyl-2-oxo-benzimidazol-1-yl]piperidine-2,6-dione] gave a DC50 of less than 500 nM.
O=C1CCC(N2C(=O)c3ccc(OCCCCCCCCC(=O)N4CCC5(CC4)CCN(c4cncc(Nc6ncc(Cl)c(-c7cccc(-c8ccccc8)c7)n6)c4)C5=O)cc3C2=O)C(=O)N1 (stereo not drawn) [Compound 72, 5-((9-(2-(5-((4-([1,1′-biphenyl]-3-yl)-5-chloropyrimidin-2-yl)amino)pyridin-3-yl)-1-oxo-2,8-diazaspiro[4.5]decan-8-yl)-9-oxononyl)oxy)-2-(2,6-dioxopiperidin-3-yl)isoindoline-1,3-dione] gave a DC50 of less than 500 nM.
O=C1CCC(Nc2ccc(N3CCC(N4CCN(CCC(=O)Nc5cncc(Nc6ncc(Cl)c(-c7cccc(-c8ccccc8)c7)n6)c5)CC4)CC3)cc2)C(=O)N1 (stereo not drawn) [Compound 183, N-(5-((4-([1,1′-biphenyl]-3-yl)-5-chloropyrimidin-2-yl)amino)pyridin-3-yl)-3-(4-(1-(4-((2,6-dioxopiperidin-3-yl)amino)phenyl)piperidin-4-yl)piperazin-1-yl)propanamide] showed a DC50 of less than 500 nM.
O=C1CCC(N2C(=O)c3cccc(OCCCN4CCN(CCCCCCCC(=O)Nc5cncc(Nc6ncc(Cl)c(-c7cccc(-c8ccccc8)c7)n6)c5)CC4)c3C2=O)C(=O)N1 (stereo not drawn) [Compound 67, N-(5-((4-([1,1′-biphenyl]-3-yl)-5-chloropyrimidin-2-yl)amino)pyridin-3-yl)-8-(4-(3-((2-(2,6-dioxopiperidin-3-yl)-1,3-dioxoisoindolin-4-yl)oxy)propyl)piperazin-1-yl)octanamide] showed a DC50 of less than 500 nM.
In the case of O=C1CCC(Nc2ccc(N3CCC(N4CCC5(CCN(c6cncc(Nc7ncc(Cl)c(N8CCCCC8)n7)c6)C5=O)CC4)CC3)cc2)C(=O)N1 (stereo not drawn) [Compound 91, 3-((4-(4-(2-(5-((5-chloro-4-(piperidin-1-yl)pyrimidin-2-yl)amino)pyridin-3-yl)-1-oxo-2,8-diazaspiro[4.5]decan-8-yl)piperidin-1-yl)phenyl)amino)piperidine-2,6-dione], the DC50 is reported as 1000 to 5000 nM.
Work on O=C1CCC(Nc2ccc(N3CCC(CC(=O)N4CCC5(CC4)CCN(c4cncc(Nc6ncc(Cl)c(-c7cccc(C8CCCCC8)c7)n6)c4)C5=O)CC3)cc2)C(=O)N1 (stereo not drawn) [Compound 189, 3-((4-(4-(2-(2-(5-((5-chloro-4-(3-cyclohexylphenyl)pyrimidin-2-yl)amino)pyridin-3-yl)-1-oxo-2,8-diazaspiro[4.5]decan-8-yl)-2-oxoethyl)piperidin-1-yl)phenyl)amino)piperidine-2,6-dione] yielded a DC50 of 500 to 1000 nM.
Compound O=C1CCC(N2Cc3cc(OCCCCCCC(=O)N4CCC5(CC4)CCN(c4cncc(Nc6ncc(Cl)c(-c7cccc(-c8ccccc8)c7)n6)c4)C5=O)ccc3C2=O)C(=O)N1 (stereo not drawn) [Compound 64, 3-(5-((7-(2-(5-((4-([1,1′-biphenyl]-3-yl)-5-chloropyrimidin-2-yl)amino)pyridin-3-yl)-1-oxo-2,8-diazaspiro[4.5]decan-8-yl)-7-oxoheptyl)oxy)-1-oxoisoindolin-2-yl)piperidine-2,6-dione] has a DC50 of less than 500 nM.
Compound O=C1CCC(Nc2ccc(C3CCN(C(=O)CN4CCC5(CC4)CCN(c4cncc(Nc6ncc(Cl)c(-c7cccc(C8CC8)c7)n6)c4)C5=O)CC3)cc2)C(=O)N1 (stereo not drawn) [Compound 200, 3-((4-(1-(2-(2-(5-((5-chloro-4-(3-cyclopropylphenyl)pyrimidin-2-yl)amino)pyridin-3-yl)-1-oxo-2,8-diazaspiro[4.5]decan-8-yl)acetyl)piperidin-4-yl)phenyl)amino)piperidine-2,6-dione] has a DC50 of less than 500 nM.
Compound Cn1c(=O)n(C2CCC(=O)NC2=O)c2ccc(C3CCN(C(=O)CN4CCC(C(=O)Nc5cncc(Nc6ncc(Cl)c(-c7cccc(C8CC8)c7)n6)c5)CC4)CC3)cc21 (stereo not drawn) [Compound 204, N-(5-((5-chloro-4-(3-cyclopropylphenyl)pyrimidin-2-yl)amino)pyridin-3-yl)-1-(2-(4-(1-(2,6-dioxopiperidin-3-yl)-3-methyl-2-oxo-2,3-dihydro-1H-benzo[d]imidazol-5-yl)piperidin-1-yl)-2-oxoethyl)piperidine-4-carboxamide] has a DC50 of less than 500 nM.
O=C(COc1ccc(NC2CCC(=O)NC2=O)cc1)NCCCCCCCCCC(=O)Nc1cncc(Nc2ncc(Cl)c(-c3cccc(-c4ccccc4)c3)n2)c1 (stereo not drawn) [Compound 55, N-(5-((4-([1,1′-biphenyl]-3-yl)-5-chloropyrimidin-2-yl)amino)pyridin-3-yl)-10-(2-(4-((2,6-dioxopiperidin-3-yl)amino)phenoxy)acetamido)decanamide] was tested, and the DC50 was 500 to 1000 nM.
O=C1CCC(Nc2ccc(C3CCN(CC(=O)N4CCC5(CC4)CCN(c4cncc(Nc6ncc(Cl)c(-c7cccc(N8CCCC8)c7)n6)c4)C5=O)CC3)cc2)C(=O)N1 (stereo not drawn) [Compound 179, 3-((4-(1-(2-(2-(5-((5-chloro-4-(3-(pyrrolidin-1-yl)phenyl)pyrimidin-2-yl)amino)pyridin-3-yl)-1-oxo-2,8-diazaspiro[4.5]decan-8-yl)-2-oxoethyl)piperidin-4-yl)phenyl)amino)piperidine-2,6-dione] gave a DC50 of less than 500 nM.
Work on O=C1CCC(N2Cc3c(OCCCCCCCC(=O)N4CCC5(CC4)CCN(c4cncc(Nc6ncc(Cl)c(-c7cccc(-c8ccccc8)c7)n6)c4)C5=O)cccc3C2=O)C(=O)N1 (stereo not drawn) [Compound 70, 3-(4-((8-(2-(5-((4-([1,1′-biphenyl]-3-yl)-5-chloropyrimidin-2-yl)amino)pyridin-3-yl)-1-oxo-2,8-diazaspiro[4.5]decan-8-yl)-8-oxooctyl)oxy)-1-oxoisoindolin-2-yl)piperidine-2,6-dione] yielded a DC50 of less than 500 nM.
In the case of O=C1CCC(Nc2ccc(N3CCC(CC(=O)N4CCC5(CC4)CCN(c4cncc(Nc6ncc(Cl)c(N7CCCCC7)n6)c4)C5=O)CC3)cc2)C(=O)N1 (stereo not drawn) [Compound 168, 3-((4-(4-(2-(2-(5-((5-chloro-4-(piperidin-1-yl)pyrimidin-2-yl)amino)pyridin-3-yl)-1-oxo-2,8-diazaspiro[4.5]decan-8-yl)-2-oxoethyl)piperidin-1-yl)phenyl)amino)piperidine-2,6-dione], the DC50 is reported as less than 500 nM.
In the case of O=C(COc1cccc2c1C(=O)N(C1CCC(=O)NC1=O)C2=O)NCCCCCCCC(=O)Nc1cncc(Nc2ncc(Cl)c(-c3cccc(-c4ccccc4)c3)n2)c1 (stereo not drawn) [Compound 86, N-(5-((4-([1,1′-biphenyl]-3-yl)-5-chloropyrimidin-2-yl)amino)pyridin-3-yl)-8-(2-((2-(2,6-dioxopiperidin-3-yl)-1,3-dioxoisoindolin-4-yl)oxy)acetamido)octanamide], the DC50 is reported as less than 500 nM.
Work on O=C1CCC(Nc2ccc(C3CCN(CC(=O)N4CCC5(CC4)CCN(c4cncc(Nc6ncc(Cl)c(N7CCC[C@H](C(F)(F)F)C7)n6)c4)C5=O)CC3)cc2)C(=O)N1 (stereo partly drawn) [Compound 172, 3-((4-(1-(2-(2-(5-((5-chloro-4-((S)-3-(trifluoromethyl)piperidin-1-yl)pyrimidin-2-yl)amino)pyridin-3-yl)-1-oxo-2,8-diazaspiro[4.5]decan-8-yl)-2-oxoethyl)piperidin-4-yl)phenyl)amino)piperidine-2,6-dione] yielded a DC50 of less than 500 nM.
